Laboratory results published in US20050004211A1, “Pharmaceutical compositions comprising aryl-substituted acyclic enediyne compounds” (KAOHSIUNG MEDICAL UNIVERSITY, priority 2003, published 2005).
Converted amounts (≈) assume the structure as drawn.

Legend:
[1] = tested on: Non-small cell Lung cancer cell NCI-H460; assay: Preliminary cytotoxicity test; type: cell-based, human
CNS cancer cell SF-268 = assay: Preliminary cytotoxicity test; type: cell-based, human
Breast cancer cell MCF-7 = assay: Preliminary cytotoxicity test; type: cell-based, human
topoisomerase I = biological target: T1, topoisomerase I (Homo sapiens, UniProt P11387); assay: Topoisomerase I course assay, cleavage of supercoiled pGEM9zf(−) DNA, gel electrophoresis; type: biochemical; conditions: for topo I inhibitor, overall finding: no concentration stated
T1 sequence (P11387 1-765): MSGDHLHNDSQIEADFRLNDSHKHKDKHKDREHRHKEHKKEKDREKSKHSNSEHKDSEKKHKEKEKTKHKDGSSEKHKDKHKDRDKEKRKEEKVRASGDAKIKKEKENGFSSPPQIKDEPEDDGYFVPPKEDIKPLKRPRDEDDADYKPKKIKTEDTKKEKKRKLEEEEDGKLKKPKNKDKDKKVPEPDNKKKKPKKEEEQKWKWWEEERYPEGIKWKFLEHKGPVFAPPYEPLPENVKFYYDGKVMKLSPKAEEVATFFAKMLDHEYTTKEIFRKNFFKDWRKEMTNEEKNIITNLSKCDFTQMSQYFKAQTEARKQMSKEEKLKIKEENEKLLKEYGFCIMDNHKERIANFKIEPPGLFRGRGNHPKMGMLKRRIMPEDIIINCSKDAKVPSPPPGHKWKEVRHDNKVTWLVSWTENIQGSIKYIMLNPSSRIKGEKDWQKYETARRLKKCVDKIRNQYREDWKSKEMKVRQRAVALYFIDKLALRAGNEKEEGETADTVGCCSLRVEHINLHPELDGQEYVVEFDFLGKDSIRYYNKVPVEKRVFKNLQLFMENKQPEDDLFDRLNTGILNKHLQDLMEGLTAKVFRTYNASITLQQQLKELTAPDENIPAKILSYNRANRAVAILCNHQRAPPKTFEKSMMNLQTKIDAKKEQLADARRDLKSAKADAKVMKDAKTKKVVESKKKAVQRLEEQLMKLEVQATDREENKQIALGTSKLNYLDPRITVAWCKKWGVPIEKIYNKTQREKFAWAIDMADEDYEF

[2] = tested on: DLD (DLD-1): human colon adenocarcinoma; assay: In vitro anticancer assay (cytotoxicity), human solid tumor cells; conditions: for IC50: Homo sapiens, DLD-1, read-out: IC50 Values of Cytotoxicities, DLD
[3] = tested on: Hela: human cervix epitheloid carcinoma; assay: as above; conditions: for IC50: Homo sapiens, HeLa, read-out: IC50 Values of Cytotoxicities, Hela
Hepa: human hepatoma = assay: as above; conditions: for IC50: Homo sapiens, HepA, read-out: IC50 Values of Cytotoxicities, Hepa
[4] = tested on: KB: human oral epidermoid carcinoma; assay: as above; conditions: for IC50: Homo sapiens, read-out: IC50 Values of Cytotoxicities, KB
[5] = tested on: NCI (NCI-H661): human lung large cell carcinoma; assay: as above; conditions: for IC50: Homo sapiens, NCI-H661, read-out: IC50 Values of Cytotoxicities, NCI; for IC50 Values of Cytotoxicities, NCI: NCI (NCI-H661)

Compound	IC50 [2]	IC50 [3]	IC50 (Hepa: human hepatoma)	IC50 [4]	IC50 [5]	IC50 Values of Cytotoxicities, DLD [2]	IC50 Values of Cytotoxicities, Hela [3]	IC50 Values of Cytotoxicities, Hepa (Hepa: human hepatoma)	IC50 Values of Cytotoxicities, KB [4]	IC50 Values of Cytotoxicities, NCI [5]	also measured
2-(6-(2-thioanisyl)-3-hexen-1,5-diynyl)benzonitrile [Compound 31]											Growth percentage, Non-small cell Lung cancer cell NCI-H460 [1]: 100%; Growth percentage, CNS cancer cell SF-268 (CNS cancer cell SF-268): 164%; Growth percentage, Breast cancer cell MCF-7 (Breast cancer cell MCF-7): 62%
2-(6-(2-xylenyl)-3-hexen-1,5-diyne)benzonitrile [Compound 24]											Growth percentage, Non-small cell Lung cancer cell NCI-H460 [1]: 129%; Growth percentage, CNS cancer cell SF-268 (CNS cancer cell SF-268): 111%; Growth percentage, Breast cancer cell MCF-7 (Breast cancer cell MCF-7): 101%
CCCCC#C/C=C\C#Cc1ccccc1 [Compound 6, (3Z)-Decen-1,5-diynylbenzene]	> 20 µg/mL	> 20 µg/mL	> 20 µg/mL	14.4 µg/mL (≈ 69.3 µM)	7.35 µg/mL (≈ 35.3 µM)						topo I inhibitor, overall finding (topoisomerase I): not Topo I inhibitors
N#Cc1ccccc1C#Cc1ccccc1C#CCOC1CCCCO1 (stereo not drawn) [Compound 7, 2-(2-(3-Tetrahydro-pyranyl-5-oxy-1-propynylphenyl)ethynyl)benzonitrile]						— (“—” means IC50 >20 μg/ml)	— (“—” means IC50 >20 μg/ml)	— (“—” means IC50 >20 μg/ml)	— (“—” means IC50 >20 μg/ml)	— (“—” means IC50 >20 μg/ml)	
N#Cc1ccccc1C#Cc1ccccc1C#CCCCOC1CCCCO1 (stereo not drawn) [Compound 8]						11.65 µg/mL	— (“—” means IC50 >20 μg/ml)	— (“—” means IC50 >20 μg/ml)	— (“—” means IC50 >20 μg/ml)	— (“—” means IC50 >20 μg/ml)	
CCCCC#Cc1ccccc1C#Cc1ccccc1C#N [Compound 9, 2-(2-(2-Hexynylphenyl)ethynyl)benzonitrile]						8.98 µg/mL	— (“—” means IC50 >20 μg/ml)	— (“—” means IC50 >20 μg/ml)	— (“—” means IC50 >20 μg/ml)	— (“—” means IC50 >20 μg/ml)	inhibition of topo I (topoisomerase I; 0.87 μM compound): no supercoiled DNA observed; inhibition of topo I (topoisomerase I; 8.7 μM compound): no supercoiled DNA observed; inhibition of topo I (topoisomerase I; 87 μM compound): showed restraint of topo I
CCCCCC#Cc1ccccc1C#Cc1ccccc1C#N [Compound 10, 2-(2-(2-Heptynylphenyl)ethynyl)benzonitrile]						16.25 µg/mL	— (“—” means IC50 >20 μg/ml)	5.13 µg/mL	— (“—” means IC50 >20 μg/ml)	9.22 µg/mL	inhibition of topo I (topoisomerase I; 0.87 μM compound): no inhibition of topo I; inhibition of topo I (topoisomerase I; 8.7 μM compound): displayed inhibitory activity against topo I; inhibition of topo I (topoisomerase I; 87 μM compound): displayed inhibitory activity against topo I
CCCCCCC#C/C=C\C#Cc1ccc(C#C/C=C\C#CCCCCCC)cc1 [Compound 11, 1,4-Bis-(3-(Z)-Dodecen-1,5-diynyl)benzene]	> 20 µg/mL	> 20 µg/mL	> 20 µg/mL	> 20 µg/mL	> 20 µg/mL						inhibition of topo I (topoisomerase I; 8.7 μM compound): No supercoiled DNA was observed; inhibition of topo I (topoisomerase I; 87 μM compound): No supercoiled DNA was observed; topo I inhibitor, overall finding (topoisomerase I): not topo I inhibitors
CCCCCCC#C/C=C\C#Cc1ccc(-c2ccc(C#C/C=C\C#CCCCCCC)cc2)cc1 [Compound 12, 4,4′-Bis-(3-(Z)-Dodecen-1,5-diynyl)biphenyl]	> 20 µg/mL	> 20 µg/mL	> 20 µg/mL	5.57 µg/mL (≈ 11.8 µM)	> 20 µg/mL						inhibition of topo I (topoisomerase I; 8.7 μM compound): No supercoiled DNA was observed; inhibition of topo I (topoisomerase I; 87 μM compound): No supercoiled DNA was observed; topo I inhibitor, overall finding (topoisomerase I): not topo I inhibitors
CCCCCCC#C/C=C\C#Cc1ccc(C#N)cc1 [Compound 14, 4-(3-(Z)-Dodecen-1,5-diynyl)benzonitrile]	11.9 µg/mL (≈ 45.6 µM)	> 20 µg/mL	> 20 µg/mL	> 20 µg/mL	> 20 µg/mL						
CCCCCCC#C/C=C\C#Cc1ccccn1 [Compound 15, 2-(3-(Z)-Dodecen-1,5-diynyl)pyridine]	5.15 µg/mL (≈ 21.7 µM)	> 20 µg/mL	> 20 µg/mL	> 20 µg/mL	> 20 µg/mL						
CCCCCCC#C/C=C\C#Cc1cccs1 [Compound 16, 2-(3-(Z)-Dodecen-1,5-diynyl)thiophene]	6.75 µg/mL (≈ 27.8 µM)	> 20 µg/mL	> 20 µg/mL	> 20 µg/mL	> 20 µg/mL						
CCCCCCC#C/C=C\C#Cc1cnccn1 [Compound 17, 2-(3-(Z)-Dodecen-1,5-diynyl)pyrazine]	3.89 µg/mL (≈ 16.3 µM)	5.3 µg/mL (≈ 22.2 µM)	12.3 µg/mL (≈ 51.8 µM)	5.93 µg/mL (≈ 24.9 µM)	9.43 µg/mL (≈ 39.6 µM)						
CCCCCCC#C/C=C\C#Cc1ccc(C(F)(F)F)cc1 [Compound 18, 4-(3-(Z)-Dodecen-1,5-diynyl)trifluoromethylbenzene]						5.71 µg/mL	5.86 µg/mL	17.08 µg/mL	4.32 µg/mL	11.15 µg/mL	inhibition of topo I (topoisomerase I; 87 μM compound): displayed inhibitory activities of topo I
CCCCCCC#C/C=C\C#Cc1cccc(C(F)(F)F)c1 [Compound 19, 3-(3-(Z)-Dodecen-1,5-diynyl)trifluoromethylbenzene]						7.05 µg/mL	— (“—” means IC50 >20 μg/ml)	14.39 µg/mL	6.74 µg/mL	7.73 µg/mL	
CCCCCCC#C/C=C\C#Cc1ccccc1C(F)(F)F [Compound 20, 2-(3-(Z)-Dodecen-1,5-diynyl)trifluoromethylbenzene]						8.91 µg/mL	2.15 µg/mL	12.24 µg/mL	19.65 µg/mL	5.02 µg/mL	
CCCCCCC#C/C=C\C#Cc1ccc([N+](=O)[O-])cc1 [Compound 21, 4-nitro-1-(3-(Z)-dodecen-1,5-diynyl)benzene]	1.66 µg/mL (≈ 5.9 µM)	> 20 µg/mL	> 20 µg/mL	13 µg/mL (≈ 46.2 µM)	> 20 µg/mL						
CCCCCCC#C/C=C\C#Cc1ccccc1C(=O)O [Compound 22, 2-(3-(Z)-Dodecen-1,5-diynyl)benzoate]						7.27 µg/mL	— (“—” means IC50 >20 μg/ml)	— (“—” means IC50 >20 μg/ml)	— (“—” means IC50 >20 μg/ml)	— (“—” means IC50 >20 μg/ml)	
Cc1ccc(C#CC=CC#Cc2ccccc2C#N)cc1 [Compound 28, 2-(6-(4-tolyl)-3-hexen-1,5-diynyl)benzonitrile]											Growth percentage, Non-small cell Lung cancer cell NCI-H460 [1]: 96%; Growth percentage, CNS cancer cell SF-268 (CNS cancer cell SF-268): 105%; Growth percentage, Breast cancer cell MCF-7 (Breast cancer cell MCF-7): 80%
N#Cc1ccccc1C#CC=CC#Cc1cccs1 [Compound 29, 2-(6-(2-thienyl)-3-hexen-1,5-diynyl)benzonitrile]											Growth percentage, Non-small cell Lung cancer cell NCI-H460 [1]: 34%; Growth percentage, CNS cancer cell SF-268 (CNS cancer cell SF-268): 96%; Growth percentage, Breast cancer cell MCF-7 (Breast cancer cell MCF-7): 49%
N#Cc1ccccc1C#CC=CC#Cc1ccc(N)cc1 [Compound 33, 2-[6-(p-anilinyl)-3-hexen-1,5-diynyl]benzonitrile]											Growth percentage, Non-small cell Lung cancer cell NCI-H460 [1]: 94%; Growth percentage, CNS cancer cell SF-268 (CNS cancer cell SF-268): 92%; Growth percentage, Breast cancer cell MCF-7 (Breast cancer cell MCF-7): 100%
CC[C@@]1(O)C(=O)OCc2c1cc1n(c2=O)Cc2cc3ccccc3nc2-1 [camptothecin, reference compound]											inhibition of topo I (topoisomerase I; 26.1 μM): less topo I inhibitory activity; inhibition of topo I (topoisomerase I; 43.5 μM): observable inhibition of topo I
